In patent EP4600243A2, “NOVEL BICYCLIC HETEROCYCLYL COMPOUNDS AND USE THEREOF” (Jeil Pharmaceutical Co., Ltd., priority 2022, dated 2024):

Biological target: T1, EGFR kinase (Homo sapiens, UniProt P00533)
T1 construct: purchased Promega Corporation V3831
Assay: EGFR kinase inhibitory analysis (ADP-Glo enzyme analysis system)
Format: biochemical
Details: ADP-Glo luminescence
Description: 1-2. EGFR kinase inhibitory analysis
Specifically, an ADP-Glo™ enzyme analysis system (V3831, Promega Corporation, USA) was purchased and used. […] The ADP-Glo™ reagent was added in an amount of 5 µℓ per well and allowed to react at room temperature for 40 minutes to stop the EGFR kinase reaction and to remove unused ATP. 10 µℓ of kinase detection reagent (phosphorylase detection reagent) was added and reacted at room temperature for 30 minutes to convert ADP to ATP and show ATP using luciferase and luciferin. Detection was performed using luminescence of an ELISA reader (Synergy H4, BioTek, USA).

T1 sequence (P00533 25-1210): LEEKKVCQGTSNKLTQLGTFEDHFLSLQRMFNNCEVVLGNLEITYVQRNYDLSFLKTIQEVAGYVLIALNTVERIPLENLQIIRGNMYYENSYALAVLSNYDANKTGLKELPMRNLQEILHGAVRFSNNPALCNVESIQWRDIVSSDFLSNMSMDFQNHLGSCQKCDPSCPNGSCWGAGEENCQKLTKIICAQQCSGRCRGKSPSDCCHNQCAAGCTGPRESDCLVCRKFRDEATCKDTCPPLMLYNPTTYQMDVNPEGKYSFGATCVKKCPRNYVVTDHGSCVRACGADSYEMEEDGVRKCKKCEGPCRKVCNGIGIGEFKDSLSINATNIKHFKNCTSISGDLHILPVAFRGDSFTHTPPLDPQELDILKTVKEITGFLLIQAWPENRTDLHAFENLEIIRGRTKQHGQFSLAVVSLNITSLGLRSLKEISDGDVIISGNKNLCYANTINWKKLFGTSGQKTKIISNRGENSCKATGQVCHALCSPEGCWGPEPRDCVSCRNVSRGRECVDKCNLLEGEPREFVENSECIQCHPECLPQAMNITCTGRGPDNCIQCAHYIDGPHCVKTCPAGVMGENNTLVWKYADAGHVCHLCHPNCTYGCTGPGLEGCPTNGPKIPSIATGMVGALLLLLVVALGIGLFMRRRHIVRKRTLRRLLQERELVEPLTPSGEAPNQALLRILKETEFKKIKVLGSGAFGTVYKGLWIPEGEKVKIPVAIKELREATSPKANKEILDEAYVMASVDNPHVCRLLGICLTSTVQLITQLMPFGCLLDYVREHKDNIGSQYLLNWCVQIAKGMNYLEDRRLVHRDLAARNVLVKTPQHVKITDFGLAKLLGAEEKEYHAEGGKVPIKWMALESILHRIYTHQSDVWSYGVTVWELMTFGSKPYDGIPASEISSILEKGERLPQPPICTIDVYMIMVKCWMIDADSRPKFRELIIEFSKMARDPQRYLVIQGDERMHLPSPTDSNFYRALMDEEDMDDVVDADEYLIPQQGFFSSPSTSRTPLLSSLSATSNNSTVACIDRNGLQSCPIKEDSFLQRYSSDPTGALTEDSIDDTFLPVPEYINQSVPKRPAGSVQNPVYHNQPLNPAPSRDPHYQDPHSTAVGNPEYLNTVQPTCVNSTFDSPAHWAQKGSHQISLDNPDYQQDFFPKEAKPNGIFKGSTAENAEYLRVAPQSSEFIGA

Row | SMILES | IC50 [µM]
1 | C[C@@H](Nc1cnnc2ccc(C3=CCNCC3)cc12)c1cccc(C(F)F)c1F [Example 2, (R)-N-(1-(3-(difluoromethyl)-2-fluorophenyl)ethyl)-6-(1,2,3,6-tetrahydropyridin-4-yl)cinnolin-4-amine] | > 10
2 | C[C@@H](Nc1cnnc2ccc(N3CCN(C)CC3)cc12)c1cccc(C(F)F)c1F [Example 5, (R)-N-(1-(3-(difluoromethyl)-2-fluorophenyl)ethyl)-6-(4-methylpiperazin-1-yl)cinnolin-4-amine] | > 10

Biological target: T2, protein-protein interaction between SOS1 and KRAS G12C (Homo sapiens, UniProt Q07889)
T2 construct: purchased Cisbio 64KRASG12PEG
T2 sequence (Q07889 1-1333): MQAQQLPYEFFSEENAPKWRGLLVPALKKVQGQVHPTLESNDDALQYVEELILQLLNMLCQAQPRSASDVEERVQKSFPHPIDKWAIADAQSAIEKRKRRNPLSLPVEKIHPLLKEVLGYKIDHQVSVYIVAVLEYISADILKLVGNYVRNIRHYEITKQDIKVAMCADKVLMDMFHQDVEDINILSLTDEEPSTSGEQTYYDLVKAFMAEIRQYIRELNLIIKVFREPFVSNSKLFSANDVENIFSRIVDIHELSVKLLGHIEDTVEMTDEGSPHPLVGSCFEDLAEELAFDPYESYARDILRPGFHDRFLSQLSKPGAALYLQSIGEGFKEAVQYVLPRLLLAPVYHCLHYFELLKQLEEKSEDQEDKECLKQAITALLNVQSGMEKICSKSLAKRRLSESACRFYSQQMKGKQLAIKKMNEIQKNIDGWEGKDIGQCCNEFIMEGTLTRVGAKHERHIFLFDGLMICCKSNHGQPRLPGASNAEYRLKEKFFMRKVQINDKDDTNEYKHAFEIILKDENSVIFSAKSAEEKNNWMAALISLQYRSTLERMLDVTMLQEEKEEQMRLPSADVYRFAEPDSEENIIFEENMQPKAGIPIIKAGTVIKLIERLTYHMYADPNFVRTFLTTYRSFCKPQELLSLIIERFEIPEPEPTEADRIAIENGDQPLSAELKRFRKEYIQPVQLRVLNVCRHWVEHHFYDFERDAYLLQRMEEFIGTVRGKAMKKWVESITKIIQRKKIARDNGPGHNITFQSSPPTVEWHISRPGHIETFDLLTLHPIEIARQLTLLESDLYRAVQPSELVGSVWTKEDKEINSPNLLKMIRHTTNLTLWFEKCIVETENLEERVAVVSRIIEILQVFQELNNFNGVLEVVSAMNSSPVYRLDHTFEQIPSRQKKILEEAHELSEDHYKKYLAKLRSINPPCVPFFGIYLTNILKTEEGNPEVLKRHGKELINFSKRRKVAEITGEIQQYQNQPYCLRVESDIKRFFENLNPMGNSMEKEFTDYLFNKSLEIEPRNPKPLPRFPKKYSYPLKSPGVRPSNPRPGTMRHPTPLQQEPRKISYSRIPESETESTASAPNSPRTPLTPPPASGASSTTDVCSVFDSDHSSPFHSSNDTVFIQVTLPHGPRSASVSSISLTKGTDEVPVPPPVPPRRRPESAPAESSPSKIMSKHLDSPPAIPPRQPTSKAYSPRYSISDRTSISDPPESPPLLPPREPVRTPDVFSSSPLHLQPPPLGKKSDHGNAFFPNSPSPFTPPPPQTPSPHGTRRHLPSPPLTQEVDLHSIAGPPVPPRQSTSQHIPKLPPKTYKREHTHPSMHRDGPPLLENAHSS
Assay: KRAS::SOS1 HTRF binding analysis (KRAS G12C/SOS1 binding kit)
Details: compound at 0.1 uM
Description: 1-1. KRAS::SOS1 HTRF binding analysis
An SOS1 inhibitory ability of the example compounds of the present invention was confirmed by identifying the effect of inhibiting a protein-protein interaction between SOS1 and KRAS G12C of the compounds according to examples of the present invention.
Specifically, a KRAS G12C/SOS1 binding kit (64KRASG12PEG, Cisbio, France) was purchased and used. 2 µℓ of Tag1-KRAS G12C and 2 µℓ of GTP were premixed and dispensed 4 µl each into a 384 well plate (6007290, PerkinElmer, USA). 2 µℓ of the compound and 4 µℓ of Tag2-SOS1 were placed and then 10 µℓ of premixed Anti-Tag1 XL665 antibody and Anti-Tag2 Tb cryptate antibody was dispensed to each well. The plates were sealed and allowed to react at room temperature for one hour and 40 minutes, and then 665 nm wavelength and 620 nm wavelength were measured using a HTRF® compatible reader (Synergy H4, BioTeK, USA), and the ratio of receptor and donor emission signals for each well was calculated as 665 nm/620 nm×10^4.
(+++: more than 70 to 100% inhibition, ++: more than 40 to 70% inhibition, +: 0 to 40% inhibition) [Table 4]

Row | SMILES | inhibition at 0.1 µM [%]
3 | C[C@@H](Nc1cnnc2ccc(C3=CCNCC3)cc12)c1cccc(C(F)F)c1F [Example 2, (R)-N-(1-(3-(difluoromethyl)-2-fluorophenyl)ethyl)-6-(1,2,3,6-tetrahydropyridin-4-yl)cinnolin-4-amine] | 40 to 70
4 | C[C@@H](Nc1cnnc2ccc(N3CCN(C)CC3)cc12)c1cccc(C(F)F)c1F [Example 5, (R)-N-(1-(3-(difluoromethyl)-2-fluorophenyl)ethyl)-6-(4-methylpiperazin-1-yl)cinnolin-4-amine] | 40 to 70
5 | C[C@@H](Nc1cnnc2ccc(N[C@@H]3CCN(C)C3)cc12)c1cccc(C(F)F)c1F [Example 38, N4-((R)-1-(3-(difluoromethyl)-2-fluorophenyl)ethyl)-N6-((R)-1-methylpyrrolidin-3-yl)cinnolin-4,6-diamine] | 40 to 70
6 | C[C@@H](Nc1cnnc2ccc(N3CC4(CN(C)C4)C3)cc12)c1cccc(C(F)F)c1F [Example 7, (R)-N-(1-(3-(difluoromethyl)-2-fluorophenyl)ethyl)-6-(6-methyl-2,6-diazaspiro[3.3]heptan-2-yl)cinnolin-4-amine] | 70 to 100
7 | C[C@@H](Nc1cnnc2ccc(NC3CCOCC3)cc12)c1cccc(C(F)F)c1F [Example 37, (R)-N4-(1-(3-(difluoromethyl)-2-fluorophenyl)ethyl)-N6-(tetrahydro-2H-pyran-4-yl)cinnolin-4,6-diamine] | 0 to 40
8 | C[C@@H](Nc1cnnc2ccc(N3CCC(C)(O)CC3)cc12)c1cccc(C(F)F)c1F [Example 19, (R)-1-(4-((1-(3-(difluoromethyl)-2-fluorophenyl)ethyl)amino)cinnolin-6-yl)-4-methylpiperidin-4-ol] | 40 to 70
9 | Cc1c([C@@H](C)Nc2cnnc3ccc(N4CC5CC(C4)O5)cc23)cccc1C(F)(F)F [Example 48, 6-(6-oxa-3-azabicyclo[3.1.1]heptan-3-yl)-N-((R)-1-(2-methyl-3-(trifluoromethyl)phenyl)ethyl)cinnolin-4-amine] | 0 to 40
10 | C[C@@H](Nc1cnnc2ccc(N[C@@H]3CCNC3)cc12)c1cccc(C#N)c1 [Example 54, 3-((R)-1-(6-((R)-pyrrolidin-3-ylamino)cinnolin-4-ylamino)ethyl)benzonitrile] | 0 to 40
11 | C[C@@H](Nc1cnnc2ccc(N3CCN(C(=O)C4CCOCC4)CC3)cc12)c1cccc(C(F)F)c1F [Example 63, (R)-(4-(4-(1-(3-(difluoromethyl)-2-fluorophenyl)ethylamino)cinnolin-6-yl)piperazin-1-yl)(tetrahydro-2H-pyran-4-yl)methanone] | 40 to 70
12 | Cc1c(C#N)cccc1[C@@H](C)Nc1cnnc2ccc(N3CC4CC(C3)O4)cc12 [Example 50, 3-((1R)-1-((6-(6-oxa-3-azabicyclo[3.1.1]heptan-3-yl)cinnolin-4-yl)amino)ethyl)-2-methylbenzonitrile] | 0 to 40
13 | C[C@@H](Nc1cnnc2ccc(N3CCC(N(C)C)CC3)cc12)c1cccc(C(F)F)c1F [Example 6, (R)-N-(1-(3-(difluoromethyl)-2-fluorophenyl)ethyl)-6-(4-(dimethylamino)piperidin-1-yl)cinnolin-4-amine] | 40 to 70
14 | C[C@@H](Nc1cnnc2ccc(N3CC4CC(C3)O4)cc12)c1cccc(C(F)F)c1F [Example 12, 6-(6-oxa-3-azabicyclo[3.1.1]heptan-3-yl)-N-((R)-1-(3-(difluoromethyl)-2-fluorophenyl)ethyl)cinnolin-4-amine] | 40 to 70
15 | CO[C@H]1CCCN(c2ccc3nncc(N[C@H](C)c4cccc(C(F)F)c4F)c3c2)C1 [Example 24, N-((R)-1-(3-(difluoromethyl)-2-fluorophenyl)ethyl)-6-((S)-3-methoxypiperidin-1-yl)cinnolin-4-amine] | 0 to 40
16 | C[C@@H](Nc1cnnc2ccc(N3CC[C@H](F)C3)cc12)c1cccc(C(F)F)c1F [Example 26, N-((R)-1-(3-(difluoromethyl)-2-fluorophenyl)ethyl)-6-((S)-3-fluoropyrrolidin-1-yl)cinnolin-4-amine] | 0 to 40
